In one data set the test system is mouse. Briefly: acid writhing pain test in the mouse (acetic acid test). The class given is in vivo. Conditions: po, per os, 50% inhibition of writhing syndrome, read-out: analgesically active ED50. An excerpt:
Acetic acid test (writhing test) in the mouse Method: In the acetic acid test after KOSTER et al. (Fed. Proc., Vol. 18, page 412 (1959)) the pain stimulus triggered by an intraperitoneal injection of 1% acetic acid. The pain reaction is expressed in the form of the characteristic stretching of the animals ("writhing syndrome") which continues at irregular time intervals form some time after injection of the acetic acid. The dose-dependent inhibition of the frequency of the stretching movement as compared to an untreated control group is expressed in percent as analgesic activity. Evaluation is by determination type the ED50 (Method of linear regression). The ED50 is the dose in mg/kg at which there is a 50% inhibition of the "writhing syndrome".
A general note: An intraperitoneal irritant provokes the stretching counted in writhing tests.

The test system of data set [1] is rat. Briefly: Randall-Selitto inflammatory pain test in the rat. The class given is in vivo. Particulars: po, per os; for ED50: 0.5 h, Randall-Selitto test, rat, 50% analgesic activity, read-out: analgesically effective ED50. The method, then: Randall-Selitto test (inflammatory pain in the rat)
By analogy with the method according to RANDALL and SELITTO (L. O. Randall and J. Selitto, Arch. int. Pharmacodyn. Vol. 111, pages 409-418 (1957)), rats receive subplantar injections of 0.1 ml of a 20% (in demineralized water) brewer's yeast suspension into the right back paw. 2 1/2 hours thereafter the test substances are administered and 30 minutes thereafter the pain threshold (in grams) is measured as pain in the inflamed paw, using a commercially available algesia meter. The criterion is the defense reaction shown by the animals in pulling the paw away and/or freeing themselves from the research worker's grip. The activity of the substance is measured in the form of the increase in the pain threshold as compared to an untreated control group. The course of the experiment differs from that in the original method in that the substances are only given 21/2 hours after provocation of the edema and not simultaneously therewith. In so doing the intention is to prevent the development of the edema being inhibited by a possible anti-inflammatory activity and masking or feigning analgesia.
The ED50 is determined using the linear regression method. The ED50 here is the dose in mg/kg it which mathematically there is a 50% analgesic activity.

Data set [2] has as its system rat. Briefly: carragheen-induced oedema test in the rat. The class given is in vivo. Particulars: for ED50: 50% inhibition of paw oedema, read-out: anti-inflammatorily active ED50. The method, then: Caragheen-induced edema test for anti-inflammatory activity:
The investigation is conducted in carragheen-induced edema of the rat paw after the method of MOERSDORF and co-workers (Arch.int.Pharmacodyn. 192, 111-127 (1971)). The anti-inflammatory activity is, for example, given as inhibition of edema in percent as compared to the untreated control group. Application is oral or intraperitoneal in all experiments. The substance is administered orally or intraperitoneally 1 hour after triggering the inflammation. The ED50 is the dose in mg/kg at which there is 50% inhibition of the paw oedema.

Data set [3] in a line: analgesic, anti-inflammatory, anti-arthrotic and cytoprotective activity in investigatory models. Particulars: in words. The class given is in vivo, mouse, rat, chicken. An excerpt:
The optical isomers of α-lipoic acid display a good analgesic, anti-inflammatory, anti-arthrotic and cytoprotective activity in, for example, the following investigatory models:
MgSO4 writhing test in the mouse according to GYIRES et al. (Arch.int.pharmacodyn.therap. 267, 131-140 (1984))
Adjuvans arthritis in the rat according to NEWBOULD (Brit.J.Pharmacol. 21, 127-136 (1963))
TPA- or arachidonic acid-induced mouse ear oedema according to YOUNG et al. (J.Invest.Dermatol. 80, 48-52 (1983))
Na-mono-iodazetate-induced arthrosis in rats or chickens according to KALBHEN in: Arthrosis deformans, Eular-Verlag, Basel/Switzerland, 1982
TPA-induced arthrosis in rats according to WEISCHER (Agents and Actions 23, 1/2 (1988))
Intestinal ulcerations in rats according to DEL SOLDATO (Agents and Actions 16, 393-396 (1985))
Colitis-model in the rat according to WEISCHER at al (Agents and Actions, vol. 26, 1/2, page 222 to 223, (1989))
Ethanol-ulcer model in the rat (determination for example of a cytoprotective activity).

Data set [4] can be described thus: analgesic and anti-inflammatory activity compared with the racemate (general statement, no test named). Format: in vivo. Particulars: vs racemate.
A short description of data set [5]: acute toxicity in the mouse (method of LITCHFIELD and WILCOXON). Conditions: in vivo, oral administration. The method, then:
The acute toxicity of R-α-lipoic acid and S-α-lipoic acid in the mouse (expressed as the LD50 mg/kg; method of LITCHFIELD and WILCOXON, J. Pharmacol. Exp Ther. 95, 99 (1949)), is for example in excess of 100 mg/kg in the case of oral administration.

The test system of data set [6] is human immunodeficiency virus HIV (HIV-1, HIV-2). As to the kind of experiment: growth-inhibiting activity against retroviruses, in particular HIV (HIV-1, HIV-2). The class given is cell-based. Conditions: in vitro; in words. An excerpt: 3. Determination of reverse transcriptase in culture supernatant
4. Determination of p24 antigen in culture supernatant
In the case of the in vitro experiments the active ingredient is used, for example in benzyl alcohol as solvent.
The following substrates may, for example, be used for the in vitro investigations of the replication behavior of retroviruses, in particular HIV:
1. Virus-containing RPMI 1640 medium, for example 1X liquid 041-01875 (synthetic culture medium from Gibeo according to Moore, Gerner and Franklin, H. A. (1967), J.A.M.A. 199; 519) in a concentration of 2×10^3 -1×10^4 infectious units (PFU)/ml
2. The cell lines Jurkat Clone E6-1, Sup T1 and HeLa CT4.

[7] abbreviates: po, carragheen-induced oedema, rat, per os.

For orientation: ED50 means the dose at which the effect has come halfway, by size or by number of responders. Broadly, the LD50 is the dose at which mortality reaches 50%. A low value points to greater toxicity.

In the case of `O=C(O)CCCCC1CCSS1` (racemic) [racemate, 1,2-dithiacyclopentane-3-valeric acid, reference compound], the ED50 with mouse is 51.3 mg/kg; with rat [1], 45.9 mg/kg; with rat [2] (setting [7]), 49.7 mg/kg.

Regarding `O=C(O)CCCC[C@@H]1CCSS1` [R-α-lipoic acid], in data set [3], the “antinociceptive and cytoprotective activity (beside anti-inflammatory and anti-arthritic main activity)” value is on record as “to a lesser extent”. In the data set on rat [2] (Rattus norvegicus, po, carragheen-induced oedema test, per os, read-out: minimum anti-inflammatorily effective dose), the minimal effective dose was found to be 1 mg/kg. Also, the “anti-inflammatory activity superior to that of racemic α-lipoic acid (factor)” value in the data set on rat [2] (carragheen-induced oedema, rat, peroral application) is ≥ 10 factor. For the same molecule, in the data set on rat [2] (setting [7]), the ED50 amounted to 4.9 mg/kg. In addition, in data set [4], the “anti-inflammatory activity stronger than that of the racemate (factor)” value was 10 factor. In addition, the LD50 in data set [5] was > 100 mg/kg. Also, the “growth-inhibiting activity against retroviruses, in particular HIV (HIV-1, HIV-2)” value in data set [6] is recorded as “growth-inhibiting activity”.

As for `O=C(O)CCCC[C@H]1CCSS1` [S-α-lipoic acid], the “anti-inflammatory and cytoprotective activity (beside analgesic main activity)” value in data set [3] is reported as “to a lesser extent”. Besides, the ED50 in the data set on mouse was found to be 10.2 mg/kg; in the data set with rat [1], 7.5 mg/kg. Further, the minimal effective dose with rat [1] (Rattus norvegicus, Randall-Selitto pain test, read-out: minimum analgesically effective dose) was determined as 1 mg/kg. The LD50 in data set [5] is > 100 mg/kg. The “growth-inhibiting activity against retroviruses, in particular HIV (HIV-1, HIV-2)” value in data set [6] is “growth-inhibiting activity”.

These data come from patent US6271254A, “Pharmaceutical compositions containing R-α-lipoic acid or S-α-lipoic acid as active ingredient” (ASTA Pharma Aktiengesellschaft, priority 1989, dated 2001).
